This is an account of results in US10793514B2, “Glutamine transport inhibitors and methods for treating cancer” (Vanderbilt University, priority 2016, dated 2020).

One may read the half-life as the time in which the quantity being followed falls by half. Read a high half-life as slow loss.

The test system of data set [1] is HCC1806 cells. In words: LC3B immunofluorescence. The data set is classed as cell-based, human. The conditions noted are these: 25 μM, 48 hrs. On the procedure:
Following treatment, cells were fixed with 70% methanol for 5-10 min. LC3B was visualized with 1:100 primary antibody (anti LC3B, Cell signaling 2775) at 37° C. for 45 min followed by application of 1:600 secondary antibody (Rhodamine Red, Invitrogen R6394) at 37° C. for 30 min and DAPI for 4 min. Images were acquired with a fluorescence microscope at visualized at 40× magnification.

The target of data set [2] is ASCT1 (SLC1A4) (Mus musculus (Mouse), UniProt O35874). The data set is described as follows: Drug Affinity Responsive Target Stability (DARTS) assay, ASCT1. The data set is classed as binding. The conditions noted are these: thermolysin. On the procedure:
DARTS was carried out as previously described^15 using T-REx-293 cells with tetracycline-inducible expression of ASCT2 or lysate from 115 mg of homogenized mouse brain for ASCT1. […] Lysates were then incubated at room temperature with the protease Thermolysin (1:100 and 1:200 total enzyme to total substrate) for 30 min. ASCT2 was measured by immunoblotting (ASCT2 antibody: Millipore ABN73; ASCT1 antibody: Cell Signaling 8442).

Data set [3] deals with HT29 cells. The data set is described as follows: Glutathione and reactive oxygen species in HT29 cells. As to conditions: 48 h. The data set is classed as cell-based, human. On the procedure:
Glutathione levels were measured using a commercially available kit (Cayman Chemical 703002) according to the manufacturers protocol. Concurrently ROS was measured in cells using CM-H2DCFDA (Life Technologies C6827) coupled with flow cytometry in accordance with the manufacturers protocol. The assay was replicated replicated at least three times, technically and biologically. Significance was calculated using a t-test in Graphpad Prism. Error is reported as standard deviation (SD).

The subject of data set [4] is pERK in HCC1806 and HT29 cells. The data set is described as follows: AlphaScreen SureFire pERK assay. The data set is classed as cell-based, human. The conditions noted are these: 48 h. On the procedure:
Detection of activated ERK in cell lysates was enabled by the AlphaScreen SureFire ERK assay (Perkin Elmer) according to the manufacturers protocol. Cells were plated in 96-well plates for 24 hours prior to the assay.
(Bead proximity is the source of the signal in Alpha formats.)

For data set [5], the target named is ASCT2 (Homo sapiens (Human), UniProt Q15758). The data set is described as follows: Drug Affinity Responsive Target Stability (DARTS) assay, ASCT2. As to conditions: tetracycline-inducible ASCT2 HEK293 cells; 50, 100, 200 μM.
For data set [6], the system named is HT29 and HCT-116 cells. In words: Cell viability with or without chloroquine. The data set is classed as cell-based, human. As to conditions: combined with chloroquine (10 μM), 48 h. On the procedure: Viability was evaluated using a commercially available chemiluminescent reagents (CellTiter-Glo, Promega Corp. G7572; MultiTox Glo, Promega Corp. G9270) in 96-well plate format according to the manufacturers protocol. […] Subsequently, CellTiter-Glo reagent was added and the plates were read using a plate reader (BioTek Synergy 4) with standard settings. Each set of conditions was replicated at least three times, technically and biologically. Error is reported as standard deviation (SD). The sulforhodamine B assay was run analogously to the above assays as previously described^19.

Data set [7] concerns HCT-116 (KRAS G13D) cell-line xenografts. In words: HCT-116 xenograft chronic exposure study. The conditions noted are these: 75 mg/kg per day, 21 days. The data set is classed as in vivo, mouse. On the procedure:
Tissues were sectioned (5 μm thickness) and stained for pS6 (Cell Signaling, #4858) and caspase 3 (Cell Signaling #9661). Tissue slides were imaged at 20× magnification.
For in vivo studies, cell-line xenograft tumors were propagated in 6-week old, female athymic nude mice from immortalized cell lines. For HCC-1806 (10×10^6 cells), HCT-116 (5×10^6), and HT29 (10×10^6) cells were injected. Palpable tumors were typically visible within 2-3 weeks. For imaging studies (HCC-1806), tumors were propagated to approximately 500 mm^3. For treatment studies (HCT-116, HT29) tumors were propagated to approximately 200 mm^3 prior to therapy and were randomly assigned into treated and untreated cohorts. For generating the PDX, primary tumor tissue was obtained form a patient at Vanderbilt University Medical Center under an IRB approved protocol. The tumor tissue was genotyped within the VANTAGE core facility. Xenograft was generated as previously described 41. Briefly, tumor tissues were sectioned into approximately 125 cubic millimeter pieces then implanted subcutaneously without further manipulation. […] Tumor volumes were measured manually using calipers every third day and quantified using the formula V=W·L·(H/2).

Data set [8] has as its system HCC1806 and HT29 cells. The data set is described as follows: Autophagic flux (CYTO-ID). The data set is classed as cell-based, human. On the procedure: Autophagic flux was measure using the CYTO-ID autophagy detection kit (Enzo Life Sciences ENZ-51031). HCC1806 and HT29 cells were seeded in 96 well plates the day before the experiment. […] Following treatment, cells were gently washed with assay buffer followed by addition of the dual color detection solution and incubation at 37° C. for 30 min. The plate was analyzed on a fluorescence microplane reader (BioTek Synergy 4).

In data set [9] the test system is Colo-205 xenografts. In words: Colo-205 xenograft 10-day exposure study. The data set is classed as in vivo, mouse. As to conditions: 75 mg/kg per day, 10 days.
A short description of data set [10]: V-9302 concentration in whole blood with time. The data set is classed as in vivo, mouse. The conditions noted are these: single dose 75 mg/kg, healthy mice. On the procedure:
Liquid chromatography-tandem mass spectroscopy (LC-MS/MS) analyses were performed via reverse phase chromatography using a Shimadzu Nexera X2 UPLC (Columbia, Md.) coupled with a QTrap® 5500 (Sciex, Framinghman, MA, USA). […] Blank samples were made using fresh whole blood applied to Mitra® Microsamplers and allowed to dry for at least 24 h. All data were collected using Sciex Analyst 1.6.2 software and analyzed with MultiQuant 3.0 software. Error is reported as standard deviation (SD).

The test system of data set [11] is HCC1806 cell line xenograft. The data set is described as follows: [18F]-4F-glutamine PET imaging. The data set is classed as in vivo, mouse. As to conditions: single dose 75 mg/kg, 4 h. On the procedure: Animal handling methods for PET imaging studies were conducted as reported^5,42 Prior to imaging, animals were allowed to acclimate to facility environment for at least 1 h in a warmed chamber at 31.5° C. Animals were administered 10.4-11.8 MBq 4-[^18F]fluoroglutamine via intravenous injection and imaged using a Concorde Microsystems Focus 220 microPET scanner (Siemens Preclinical Solutions). During imaging, animals were maintained under 2% isoflurane anesthesia in oxygen at 2 L/min and kept warm for the duration of the PET scan. PET images in xenograft-bearing mice were acquired as 60-minute dynamic data sets. […] PET data were reconstructed using a three-dimensional (3D) ordered subset expectation maximization/maximum a posteriori (OSEM3D/MAP) algorithm. […] ASIPro software (Siemens Preclinical Solutions) was used to manually draw 3D regions of interest (ROIs) surrounding the entire tumor volume. 4-[^18F]fluoroglutamine uptake was quantified as the percentage of the injected dose per gram of tissue (% ID/g). Significance was calculated using a t-test in Graphpad Prism. Error is reported as standard deviation (SD).
For in vivo studies, cell-line xenograft tumors were propagated in 6-week old, female athymic nude mice from immortalized cell lines. […] Tumor volumes were measured manually using calipers every third day and quantified using the formula V=W·L·(H/2).

ASCT1 (SLC1A4), sequence (O35874 whole entry): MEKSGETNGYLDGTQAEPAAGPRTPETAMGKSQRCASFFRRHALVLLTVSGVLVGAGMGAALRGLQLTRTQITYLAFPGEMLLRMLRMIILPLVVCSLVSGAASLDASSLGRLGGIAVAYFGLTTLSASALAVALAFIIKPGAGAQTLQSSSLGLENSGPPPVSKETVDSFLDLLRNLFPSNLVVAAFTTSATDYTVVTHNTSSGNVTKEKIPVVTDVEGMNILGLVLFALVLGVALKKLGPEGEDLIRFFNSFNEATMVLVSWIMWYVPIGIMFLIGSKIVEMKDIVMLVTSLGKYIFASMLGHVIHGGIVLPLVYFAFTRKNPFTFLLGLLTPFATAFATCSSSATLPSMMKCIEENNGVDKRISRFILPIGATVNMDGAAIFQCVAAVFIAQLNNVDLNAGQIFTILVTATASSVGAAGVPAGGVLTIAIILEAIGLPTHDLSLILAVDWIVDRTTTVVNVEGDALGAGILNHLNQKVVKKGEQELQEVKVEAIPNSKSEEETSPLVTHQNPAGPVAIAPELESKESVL
ASCT2, sequence (Q15758 whole entry): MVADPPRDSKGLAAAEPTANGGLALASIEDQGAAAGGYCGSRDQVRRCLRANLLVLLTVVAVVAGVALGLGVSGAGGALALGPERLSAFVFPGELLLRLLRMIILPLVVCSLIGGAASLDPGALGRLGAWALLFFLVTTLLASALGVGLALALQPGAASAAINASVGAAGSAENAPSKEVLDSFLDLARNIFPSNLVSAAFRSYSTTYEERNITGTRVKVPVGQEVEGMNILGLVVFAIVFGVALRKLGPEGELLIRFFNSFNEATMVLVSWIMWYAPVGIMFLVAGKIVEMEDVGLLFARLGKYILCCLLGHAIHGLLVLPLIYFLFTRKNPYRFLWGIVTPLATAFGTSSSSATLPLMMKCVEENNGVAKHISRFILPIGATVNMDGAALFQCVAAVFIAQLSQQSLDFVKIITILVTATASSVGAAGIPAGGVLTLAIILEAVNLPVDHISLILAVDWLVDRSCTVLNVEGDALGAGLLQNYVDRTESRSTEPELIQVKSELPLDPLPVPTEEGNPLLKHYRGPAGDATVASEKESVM

Turning to `Cc1cccc(COc2ccccc2CN(CCC(N)C(=O)O)Cc2ccccc2OCc2cccc(C)c2)c1` (centres unmarked) [Compound V-9302], the “LC3B, marker of autophagy” value in data set [1] is reported as “elevated LC3B”. Besides, in [2], the “stabilization of ASCT1” value was “not stabilized”. Moreover, in data set [3], the “GSSG levels and ROS” value was “elevated GSSG levels and ROS”. Further, the “pERK (independent biochemical assay)” value in data set [4] is given as “statistically significant, concentration-dependent decrease in pERK”. Besides, the “protection of ASCT2 from proteolysis (thermolysin)” value in data set [5] was “protected from proteolysis in a V-9302 concentration-dependent manner”. In addition, the “cell viability, combination” value in data set [6] is listed as “further decreased cell viability”. In data set [7] (IHC), the “cleaved caspase 3 in tumor tissue” value is “elevated levels of cleaved caspase 3” and the “pS6 in tumor tissue” value is recorded as “significantly decreased pS6”. In addition, the tumor growth result in data set [7] (vs vehicle) is recorded as “prevented tumor growth”. The “number of autophagic vesicles” value in [8] (HT29 cells, combined with chloroquine (10 μM)) is “further increased the number of autophagic vesicles”. For the same compound, the autophagic flux entry in data set [8] (single agent) is listed as “elevated with V-9302 exposure in a concentration-dependent manner”. For the same compound, in data set [9], the “tumor BRDU uptake” value was “decreased tumor BRDU uptake”; the tumor growth entry is reported as “tumor growth arrest”; the tumor response markers entry was “elevated LC3B, cleaved caspase 3 and decreased pAKT (Ser473 and Thr308), as well as increased cleaved PARP and decreased and pERK”. Further, the half-life in data set [10] (mouse, whole blood) is ~6 h. Also, the “time to steady-state whole blood concentration” value in data set [10] is 4 h. The “reduction of [18F]-4F-glutamine uptake in tumors” value in [11] is listed as “approximately 50%”.
